Residue numbers refer to the chain shown, from its start.
Experiments:
[1] = test system: MCF7-ESR1 Y537N mutant cells; assay: Cell proliferation assay in MCF7-ESR1 Y537N-682; assay type: cell-based; conditions: Homo sapiens, seven days, n=6, read-out: Relative IC50 (nM), cell proliferation
ERα receptor = assay: PRα inhibition (ERα functional antagonism) cell assay in MCF7 cells; assay type: cell-based; conditions: Homo sapiens, pretreated with 0.47 nM estradiol, n=15, read-out: Relative IC50 (nM), PRα inhibition
Source text: The purpose of the following PRα inhibition (ERα functional antagonism) cell assay is to determine the antagonistic activity of a test compound against the ERα receptor. An antagonist in this assay is expected to block the function of the ERα receptor.
Carry out the assay conditions as detailed in the ERα degradation Cell base Acumen assay above, using the MCF7 cell line except that, prior to test compound dispensing, remove the media from the cell plate and pretreat all wells except for the negative control wells (column 24 of the plate) with assay media containing 0.47 nM estradiol for 30 minutes. In this assay, carry out immunostaining for the detection of PRα and scan the plates with ACUMEN EXPLORER™ [Laser-scanning fluorescence microplate cytometer manufactured by TTP LABTECH LTD] to measure PRα. Image analysis is based on cellular fluorescent signals for identifying positive cells. Identify PRα positive cells by mean intensity. Use total intensity at 575-640 from propidium iodide/DNA to identify individual cells. Assay output is % PRα positive cells. Determine the IC50 by curve fitting to a four parameter logistic for each output using GENE DATA™.

ERα (Y537S mutant) = molecular target: T1, ERα (Y537S mutant) (Homo sapiens, UniProt P03372, Y537S); assay: ERα (Y537S mutant) competition binding assay; conditions: 3H-estradiol competition, n=3
T1 sequence (P03372 1-595 Y537S): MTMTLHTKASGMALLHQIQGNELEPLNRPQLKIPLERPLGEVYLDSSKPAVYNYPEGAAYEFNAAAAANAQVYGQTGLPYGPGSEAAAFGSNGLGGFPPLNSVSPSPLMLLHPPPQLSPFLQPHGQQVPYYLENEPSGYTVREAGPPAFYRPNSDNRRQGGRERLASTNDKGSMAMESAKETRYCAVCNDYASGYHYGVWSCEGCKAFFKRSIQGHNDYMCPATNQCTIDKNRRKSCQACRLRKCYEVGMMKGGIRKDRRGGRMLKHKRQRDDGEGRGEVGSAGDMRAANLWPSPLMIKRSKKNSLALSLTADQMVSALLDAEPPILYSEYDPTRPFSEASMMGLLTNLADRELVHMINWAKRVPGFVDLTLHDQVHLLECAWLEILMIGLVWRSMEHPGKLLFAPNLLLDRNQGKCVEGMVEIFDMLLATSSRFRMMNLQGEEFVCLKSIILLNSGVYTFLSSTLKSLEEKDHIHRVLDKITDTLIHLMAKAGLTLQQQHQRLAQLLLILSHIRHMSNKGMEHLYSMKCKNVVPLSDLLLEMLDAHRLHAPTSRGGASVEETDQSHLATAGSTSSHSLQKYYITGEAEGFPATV
Method: (§1) The purpose of the following ER competition binding assays is to determine the binding affinity of a test compound against ERα (wild type) and ERα (Y537S mutant) See Fanning et al., “Estrogen receptor alpha somatic mutations Y537S and D538G confer breast cancer endocrine resistance by stabilizing the activating function-2 binding conformation,” eLife 2016; 5:e12792.
(§2) Run the competition binding assay in a buffer containing 50 mM HEPES, pH 7.5, 1.5 mM EDTA, 150 mM NaCl, 10% glycerol, 1 mg/mL ovalbumin, and 5 mM DTT, using 0.025 µCi per well ^3H-estradiol (118 Ci/mmol, 1 mCi/mL), 7.2 ng/well ERα (wild type), or 7.2 ng/well ERα (Y537S mutant). Add the test compound at 10 different concentrations ranging from 10,000 nM to 0.5 nM, and determine nonspecific binding in the presence of 1 μM of […]. Incubate the binding reaction (140 μL) for 4 hours at room temperature, and then add cold dextran-charcoal buffer (70 μL) (containing per 50 mL of assay buffer, 0.75 g of charcoal and 0.25 g of dextran) to each reaction. Mix the plates for 8 minutes on an orbital shaker at 4° C. and then centrifuge at 3000 rpm at 4° C. for 10 minutes. […] After an incubation of 2.5 hours, read the plates in a Wallac Microbeta counter. […]

ERα (wild type) = molecular target: T2, ERα (wild type) (Homo sapiens, UniProt P03372); assay: ERα (wild type) competition binding assay; conditions: recombinant ERα wild type, 3H-estradiol competition, n=3
T2 sequence (P03372 1-595): T1 sequence (P03372 1-595 Y537S) with S537Y
Method: as §1, §2

- IC50 [1]: 7.96 ± 3.69 nM
- IC50 (ERα receptor): 15.8 ± 9.04 nM
- Ki (ERα (Y537S mutant)): 0.0212 ± 0.00212 µM
- Ki (ERα (wild type)): 0.00378 ± 0.00074 µM
Compound: O=C(c1ccc(OCCN2CC(CF)C2)cc1)c1c(-c2ccc(C(F)(F)F)cc2F)cnc2cc(O)ccc12 [Example 1, (4-{2-[3-(Fluoromethyl)azetidin-1-yl]ethoxy}phenyl){3-[2-fluoro-4-(trifluoromethyl)phenyl]-7-hydroxyquinolin-4-yl}methanone]

Source: patent US12128040B2, “Selective estrogen receptor degraders” (Eli Lilly and Company, priority 2018, dated 2024)
